“And” between values parts separate entries of the source, which are not always exact repeats. Equal values may be shown once. “Also recorded” adds a separate entry of the source. Positions of bridges follow the written chain, without caps; N, C: chain ends. Non-standard residues stand in square brackets, D forms with d. Residues, ends and D or L forms follow the SMILES beside them. No end group written: not given here. *: point of attachment. FITC = O=C1OC2(c3ccc(O)cc3Oc3cc(O)ccc32)c2ccc(NC(=S)*)cc21; S5 = C=CCCC[C@](C)(N)C(=O)O
B1: fStAx-3 (FITC-labelled RCM-stapled axin CBD peptide) 467-481 (peptide)
chain: {FITC}-PESILDEHVQRVLRT
modifications: staple (positions not given here); not fully specified (residues 5, 9, bridges); also: all-hydrocarbon staple at 471/475 (positions 5, 9), stapling residues not named
B2: aAxWt (axin CBD peptide) 467-481 (peptide)
chain: PESILDEHVQRVLRT

How the values were obtained:
β-catenin [1] = biological target: T1, β-catenin (Homo sapiens, UniProt P35222); assay: Competitive fluorescence polarisation assay; format: binding; conditions: unlabelled peptide titrated against tracer peptide fStAx-3 (10 nM final), β-catenin 3 µM final; FP buffer 1× PBS with 0.05% Tween20, pH 7.4; 4 °C, 1 h; biological duplicate and technical triplicate
T1 construct: expression and purification of full-length β-catenin; His tag with TEV site (inferred from the pET28a-TEV vector name and Ni-NTA purification); host or cells: E. coli BL21(DE3)
T1 sequence (P35222 1-781): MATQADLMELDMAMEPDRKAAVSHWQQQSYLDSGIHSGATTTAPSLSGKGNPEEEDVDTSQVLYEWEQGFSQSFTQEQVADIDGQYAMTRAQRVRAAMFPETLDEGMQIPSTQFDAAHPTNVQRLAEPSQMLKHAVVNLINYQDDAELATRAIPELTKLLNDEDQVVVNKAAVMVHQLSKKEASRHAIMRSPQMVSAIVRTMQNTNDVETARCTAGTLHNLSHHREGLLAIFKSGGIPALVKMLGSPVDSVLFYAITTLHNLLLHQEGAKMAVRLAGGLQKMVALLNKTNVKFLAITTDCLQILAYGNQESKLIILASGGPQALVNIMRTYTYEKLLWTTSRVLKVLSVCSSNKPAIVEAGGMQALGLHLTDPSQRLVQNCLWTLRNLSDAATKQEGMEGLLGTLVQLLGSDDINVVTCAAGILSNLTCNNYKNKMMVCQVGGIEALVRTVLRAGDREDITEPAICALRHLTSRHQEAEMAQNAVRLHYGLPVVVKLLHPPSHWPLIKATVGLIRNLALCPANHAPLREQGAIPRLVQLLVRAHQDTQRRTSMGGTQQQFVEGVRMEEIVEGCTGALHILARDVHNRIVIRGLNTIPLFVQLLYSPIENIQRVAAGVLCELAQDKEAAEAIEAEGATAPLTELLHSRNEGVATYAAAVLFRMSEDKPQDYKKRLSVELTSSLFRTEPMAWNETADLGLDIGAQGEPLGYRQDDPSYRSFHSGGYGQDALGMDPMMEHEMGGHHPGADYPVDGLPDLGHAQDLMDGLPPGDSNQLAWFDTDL
Procedure: Figure S6: Direct titration curve of fluorescence polarisation assay of FITC-labelled AxWt (fAxWt) and FITC-labelled RCM-stapled peptide StAx-3 (fStAx-3). Dissociation constants were determined to be Kd […]
competitive fluorescence polarisation assay (see below).
Competitive fluorescence polarisation assay
A stock solution of the FITC-labelled peptide in DMSO (20 µM) was diluted to 40 nM in FP buffer (1× PBS with 0.05% Tween20, pH 7.4). A β-Catenin stock solution with a concentration of 6 µM was prepared in FP buffer. Stock solutions of non-labelled peptides (1 mM) in DMSO were serially diluted (2.5-fold) in FP buffer. […]
Fluorescence polarisation was measured using a Tecan Spark 10M with λex = 485/20 nm and […]. Each sample was measured as biological duplicate and technical triplicate. […]
The equation used for Kd determination of unlabeled peptides is shown below with r as anisotropy, r0 as anisotropy of the free peptide, rb as anisotropy of the β-Catenin:FITC-labelled tracer peptide, Kd2 as dissociation constant between the non-labelled ligand and the protein, [L]t as total non-labelled ligand concentration and [L]st as total FITC-labelled peptide concentration. Kd1 is the apparent Kd that was determined in direct fluorescence polari sation assays for the labelled-tracer peptide. […]
fluorescence polarisation assay). […]

[2] = not given; remark: listed apart in the source
[3] = not given; remark: listed apart in the source
[4] = CD spectroscopy, calculated content of α-helix; format: physicochemical; conditions: c = 100 µM in water, 20 °C, from MRE at 222 nm
Procedure: Figure 1 Analysis of the secondary structure by circular dichroism: CD spectra of both isomers of stapled peptide P5 (P5.1 and P5.2) and linear references (aAxWt, P6) (c = 100 µM) at 20 °C in water.
Table S1: Calculated contents of α-helix.
Peptide θ222 [mdeg] [θ]222 [deg cm2 dmol-1] a) MRE [deg cm2 dmol-1] b) α-Helix content [%]
a) [θ] = θ / (c * 10 * l) with c = 10-4 mol/L, l = 0.1 cm; b) MRE = [θ] / n; c) in brackets literature values for
FITC-labelled analogues, ref: Grossmann, T. N.; Yeh, J. T.-H.; Bowman, B. R.; Chu, Q.; Moellering, R.
For TFE titration experiments, peptide solutions in a mixture of TFE/H2O 4:1 were additionally
Reference peptides (linear and RCM stapled peptides)
Figure S2: CD spectra of reference peptides P6, aAxWt and aStAx-3, c = 100 µM in H2O. […]

proteinase K = proteinase K (Parengyodontium album, UniProt P06873); assay: Proteinase K stability assay; format: in vitro ADME; conditions: 0.5 mM peptide, 2.5 µg mL−1 proteinase K, Na2HPO4 buffer 100 mM pH 7.4 (with DMSO from stock), 25 °C, 120 min; samples at 0, 10, 20, 30, 60, 120 min; LC-MS at 280 nm
Chain of proteinase K (P06873 106-384, species assumed): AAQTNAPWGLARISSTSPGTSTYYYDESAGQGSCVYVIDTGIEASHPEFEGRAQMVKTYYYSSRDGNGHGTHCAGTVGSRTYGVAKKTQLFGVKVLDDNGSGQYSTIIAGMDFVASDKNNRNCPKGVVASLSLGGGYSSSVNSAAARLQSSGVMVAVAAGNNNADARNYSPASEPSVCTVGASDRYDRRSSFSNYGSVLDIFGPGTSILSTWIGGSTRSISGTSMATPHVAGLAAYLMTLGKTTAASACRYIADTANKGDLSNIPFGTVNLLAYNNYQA
Procedure: Proteinase K stability assays
The assay was performed using a modified protocol.[11] A 10 mM peptide stock solution was prepared in a mixture of Na2HPO4 buffer (100 mM, pH 7.4) and DMSO (9:1). The peptide stock solution (25 µL) was diluted with more Na 2HPO4 buffer (450 µL) and thoroughly mixed.
Proteolytic digestion was started by addition of a solution of Proteinase K ( 50 µg mL−1, activity 36.9 mAnsonU mg−1) in Na2HPO4 buffer (25 µL) and incubated for 120 min at 25 °C (resulting assay concentrations 0.5 mM peptide and 2.5 µg mL−1 proteinase K). For LC-MS analysis, a 50 µL sample was diluted with 50 µL of methanol containing 0.1% TFA (v/v) and spun down at […]
Reaction monitoring via LC-MS
Figure S8: Reaction monitoring via LC-MS at λ = 280 nm. A) Linear Peptide P6, samples were taken […]
at t = 0, 10, 20, 30, 60 and 120 min. […]
fragment Ac-ENPEWILDKHVQ-OH eluting at exactly the same retention time than peptide P6 (see mass spectra below at reaction times 0 and 120 min). For fragment assignments, see mass spectra below. B) SMC stapled peptide P5, samples were taken at t = 0, 10, 20, 30, 60 and 120 min. Compared to linear […]

β-catenin [5] = biological target: T2, β-catenin (Homo sapiens, UniProt P35222); assay: direct fluorescence polarisation
T2 chain: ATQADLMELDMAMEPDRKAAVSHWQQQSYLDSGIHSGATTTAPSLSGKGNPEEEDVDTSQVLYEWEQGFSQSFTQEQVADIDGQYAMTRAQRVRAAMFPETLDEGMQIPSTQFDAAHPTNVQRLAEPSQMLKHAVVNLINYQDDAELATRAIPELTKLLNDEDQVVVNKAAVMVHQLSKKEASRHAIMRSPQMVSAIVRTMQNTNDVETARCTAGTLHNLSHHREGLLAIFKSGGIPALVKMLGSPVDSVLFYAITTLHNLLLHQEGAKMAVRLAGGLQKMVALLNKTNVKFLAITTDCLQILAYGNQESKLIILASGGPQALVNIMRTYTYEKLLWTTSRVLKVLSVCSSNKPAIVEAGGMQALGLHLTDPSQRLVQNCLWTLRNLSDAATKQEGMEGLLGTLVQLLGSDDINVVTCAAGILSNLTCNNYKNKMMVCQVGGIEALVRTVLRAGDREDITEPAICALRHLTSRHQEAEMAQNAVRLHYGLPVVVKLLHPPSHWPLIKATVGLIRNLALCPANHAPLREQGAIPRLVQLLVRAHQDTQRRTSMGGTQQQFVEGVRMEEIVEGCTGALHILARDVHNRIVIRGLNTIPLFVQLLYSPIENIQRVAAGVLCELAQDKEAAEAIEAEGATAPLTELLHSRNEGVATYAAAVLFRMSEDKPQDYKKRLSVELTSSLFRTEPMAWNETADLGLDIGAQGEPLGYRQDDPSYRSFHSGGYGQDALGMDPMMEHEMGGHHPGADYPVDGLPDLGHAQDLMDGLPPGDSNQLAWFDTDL

β-catenin [6] = biological target: T2, β-catenin; assay: competitive fluorescence polarisation

Molecule | Kd (β-catenin [1]) | MRE (deg cm2 dmol-1) | [θ]222 (deg cm2 dmol-1) [2] | θ222 [3] | α-Helix content calculated from CD spectra [4] | Stability against proteinase K digestion (cleavage sites/fragments) (proteinase K) | Kd (β-catenin [5]) | Kd (β-catenin [6])
CC[C@H](C)[C@@H]1NC(=O)[C@@](C)(NC(=O)[C@H](CCC(=O)O)NC(=O)[C@@H]2CCCN2C(=O)[C@H](CC(N)=O)NC(=O)[C@H](CCC(=O)O)NC(C)=O)CCCC=CCCC[C@@](C)(C(=O)N[C@@H](Cc2c[nH]cn2)C(=O)N[C@H](C(=O)N[C@@H](CCC(N)=O)C(=O)N[C@@H](CCCNC(=N)N)C(=O)N[C@H](C(=O)N[C@@H](CCSC)C(N)=O)C(C)C)C(C)C)NC(=O)[C@H](CC(=O)O)NC(=O)[C@H](CC(C)C)NC1=O [aStAx-3, reference compound] (Ac-ENPE[S5]ILD[S5]HVQRVM-NH2; staple 5-9) | 49 ± 26 nM | -10800 | -162000 | -16.2 mdeg |  |  |  | 
Ac-ENPEWILDKHVQRVM-NH2 [P6] | 1240 ± 162 nM | -3960 | -59400 | -5.94 mdeg | 13% | degraded in three fragments; also recorded: cleaved within a period of 120 min to give three fragments |  | 
CC[C@H](C)[C@@H]1NC(=O)[C@@H](NC(=O)[C@H](CCC(=O)O)NC(=O)[C@@H]2CCCN2C(=O)[C@H](CC(N)=O)NC(=O)[C@H](CCC(=O)O)NC(C)=O)Cc2c[nH]c3c(cccc23)-c2ccc(cc2)CCC(=O)NCCCC[C@@H](C(=O)N[C@@H](Cc2c[nH]cn2)C(=O)N[C@H](C(=O)N[C@@H](CCC(N)=O)C(=O)N[C@@H](CCCNC(=N)N)C(=O)N[C@H](C(=O)N[C@@H](CCSC)C(N)=O)C(C)C)C(C)C)NC(=O)[C@H](CC(=O)O)NC(=O)[C@H](CC(C)C)NC1=O [P5] |  | -4690 and -6680 | -70400 and -100000 | -7.04 mdeg and -10 mdeg |  | two of three cleaving sites are blocked; also recorded: allows access to only one of the three cleavage sites; also recorded: higher stability |  | 
B1 |  |  |  |  |  |  | 63 nM | 
B2 |  |  |  |  |  |  |  | 1450 nM

Source: paper PMC8744458 (Beilstein Journal of Organic Chemistry, 2022)
